{"source": "patent US6562978B1", "about": "“Cyclic amine compounds as CCR5 antagonists” (Takeda Chemical Industries, Ltd., priority 1999, dated 2003)", "system": "HIV-1 Ba-L", "test": "Inhibitory effect on HIV-1 infection to MAGI-CCR5 cell (blue cell count, β-galactosidase)", "format": "cell-based", "conditions": "Human immunodeficiency virus 1, BAL, 48 h; final concentration of Test Compound 0.032 μM; MAGI-CCR5 cells; 300PFU HIV-1 Ba-L; 37° C. for 2 days", "note": "Structures can show the parent of a compound that is named as a salt.", "experimental": "By using said transformant MAGI-CCR5, degree of HIV-1 infection was calculated from β-galactosidase activity (blue color due to decomposition of 5-bromo-4-chloro-3-indolyl-β-D-galactopyranoside). Specifically, MAGI-CCR5 cells were suspended in DMEM medium containing 10% serum to prepare 5×10^4 cells/ml suspension. To each well of 96 well plate was inoculated 200 μM of the suspension, and the cells were cultivated at 37° C. overnight. The medium was removed by means of suction, and to the residue was added 100 μM of the above medium containing 0.064 μM of Test Compound and 100 μM of the above medium containing 300PFU of HIV-1 Ba-L cells. The final concentration of Test Compound was 0.032 μM. The cells were cultivated at 37° C. for 2 days. The medium was removed by means of suction. To the residue was added 200 μM of cell fixative (PBS containing 1% formaldehyde and 0.2% glutaraldehyde), and the mixture was allowed to stand at room temperature for 5 minutes and washed twice with PBS. To the mixture was added 100 μl of staining solution (PBS containing 4 μM potassium ferrocyanide, 4 μM potassium ferricyanade, 2 μM MgCl2 and 0.4 mg/ml×-gal), and the mixture was allowed to stand at 37° C. for 50 minutes and washed twice with PBS. The number of blue cells was counted by microscope and defined as the number of cells infected with HIV-1."}
{"molecule": "CC(=O)N1CCC(C(=O)N(CCCN2CCC(Cc3ccc(F)cc3)CC2)c2ccc(Cl)c(Cl)c2)CC1", "note": "[Example 468, 1-Acetyl-N-(3,4-dichlorophenyl)-N-{3-[4-(4-fluorobenzyl)-1-piperidinyl]propyl}-4-piperidinecarboxamide Hydrochloride]", "values": [{"measurement": "inhibition at 0.032 µM", "result": 97, "unit": "%"}]}
